Tests used:
Test in all cases: relative viability (nuclei count vs DMSO), 5 days (fraction); higher = more cells survive
QS11 + Crizotinib = compound: C1CC2=C(C1)C=C(C=C2)OC3=NC(=C4C(=N3)N(C=N4)CC5=CC=C(C=C5)C6=CC=CC=C6)N[C@@H](CC7=CC=CC=C7)CO [QS11] + C[C@@H](Oc1cc(-c2cnn(C3CCNCC3)c2)cnc1N)c1c(Cl)ccc(F)c1Cl [Crizotinib] (partner 1 µM)
Summary of the method: (§1)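 Dosing by pin tool came one day after lung cancer cell lines were seeded in 1536-well plates, using either one drug or a fixed anchor-drug dose plus five library-drug doses (not always all listed) in √10 steps. After 5 days, nuclei were counted on 4× images. Relative viability is treated-well nuclei count divided by vehicle-well nuclei count, and values are medians of duplicate plates.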

AZ628 + Trametinib = compound: CC1=C(C=C(C=C1)NC(=O)C2=CC(=CC=C2)C(C)(C)C#N)NC3=CC4=C(C=C3)N=CN(C4=O)C [AZ628] + CC(=O)Nc1cccc(-n2c(=O)n(C3CC3)c(=O)c3c(Nc4ccc(I)cc4F)n(C)c(=O)c(C)c32)c1 [Trametinib] (partner 0.02 µM)
Summary of the method: as §1

Darinaparsin + Alpelisib = compound: C[As](C)SC[C@H](NC(=O)CC[C@H](N)C(=O)O)C(=O)NCC(=O)O [Darinaparsin] + Cc1nc(NC(=O)N2CCC[C@H]2C(N)=O)sc1-c1ccnc(C(C)(C)C(F)(F)F)c1 [Alpelisib] (partner 2 µM)
Summary of the method: as §1

[1] = compound: C[As](C)SC[C@H](NC(=O)CC[C@H](N)C(=O)O)C(=O)NCC(=O)O [Darinaparsin] + Nc1nc2[nH]cc(CCc3ccc(C(=O)N[C@@H](CCC(=O)O)C(=O)O)cc3)c2c(=O)[nH]1 [Pemetrexed] (partner 0.2 µM)
Summary of the method: as §1

LCLC-97TM1
relative viability (QS11 + Crizotinib; first compound 0.08 µM): 0.275
relative viability (QS11 + Crizotinib; first compound 0.253 µM): 0.351
relative viability (QS11 + Crizotinib; first compound 0.8 µM): 0.392
relative viability (QS11 + Crizotinib; first compound 2.53 µM): 0.403
relative viability (QS11 + Crizotinib; first compound 8 µM): 0.355
relative viability (AZ628 + Trametinib; first compound 0.08 µM): 0.126
relative viability (AZ628 + Trametinib; first compound 0.253 µM): 0.118
relative viability (AZ628 + Trametinib; first compound 0.8 µM): 0.114
relative viability (AZ628 + Trametinib; first compound 2.53 µM): 0.0994
relative viability (AZ628 + Trametinib; first compound 8 µM): 0.116
relative viability (Darinaparsin + Alpelisib; first compound 0.08 µM): 0.244
relative viability (Darinaparsin + Alpelisib; first compound 0.8 µM): 0.237
relative viability (Darinaparsin + Alpelisib; first compound 2.53 µM): 0.19
relative viability (Darinaparsin + Alpelisib; first compound 8 µM): 0.26
relative viability ([1]; first compound 0.08 µM): 0.162
relative viability ([1]; first compound 0.8 µM): 0.177
relative viability ([1]; first compound 2.53 µM): 0.166
relative viability ([1]; first compound 8 µM): 0.185
